From US10456387B2, “Phacetoperane for treating of attention deficit hyperactivity disorder” (NLS PHARMA AG, priority 2011, dated 2019)

Legend:
[1] = tested on: young Wistar rats; conditions: background description of the model; cited from earlier work
[2] = tested on: young Wistar rats; experiment: T-maze test, a model of ADHD (ability to wait / impulsiveness); assay type: in vivo, rat; conditions: for Effect on ability to wait relative to the control: administered IP before the test, BLK-010 1 mg/kg; for Effect on ability to wait relative to the control / Mean, Medication (choices of the large reward deferred by 30 s) / Mean, Cont-Post (choices of the large reward deferred by 30 s): methylphenidate 3 mg/kg; for Mean, Medication (choices of the large reward deferred by 30 s): medication sessions, IP 30 min before test; for Mean, Cont-Post (choices of the large reward deferred by 30 s): post-medication control sessions, one day after medication session 2, phacetoperane 1 mg/kg IP; for Mean, Cont-Pre (choices of the large reward deferred by 30 s): pre-medication control sessions, before any drug, male juvenile Wistar rats, n = 6, sessions of 5 tests; for Efficacy compared with methylphenidate in the ability to wait: BLK-010 1 mg/kg IP vs methylphenidate 3 mg/kg IP

Structure (SMILES)	Effect on number of times the large but deferred reward is chosen [1]	Effect on ability to wait relative to the control [2]	Mean, Medication (choices of the large reward deferred by 30 s) ([2]; phacetoperane 1 mg/kg, n = 6)	Mean, Cont-Post (choices of the large reward deferred by 30 s) ([2]; n = 6)	Mean, Cont-Pre (choices of the large reward deferred by 30 s) [2]	Efficacy compared with methylphenidate in the ability to wait [2]	Efficacy compared with methylphenidate in the ability to wait ([2]; listed as BLK-010)	Improvement of impulsiveness, animals responding ([2]; BLK-010 1 mg/kg IP, n = 6)	Habituation (before and after treatment) ([2]; phacetoperane 1 mg/kg)
COC(=O)C(c1ccccc1)C1CCCCN1 (stereo not shown) [Methylphenidate, methylphenidate]	seems to increase the number of times the large but deferred reward is chosen	improve the ability to wait	3.67	0.83	1.17	–	–	–	–
CC(=O)OC(c1ccccc1)C1CCCCN1 (racemic) [Phacetoperane, threo diastereoisomer of alpha-phenyl-2-piperidinemethanol acetate]	–	improve the ability to wait	4.17	0.33	1.17	always found to be more effective than methylphenidate	significantly and statistically more effective than methylphenidate	found in all the animals	does not lead to any habituation
